# According to US20150031668A1, “CHROMAN DERIVATIVES AS TRPM8 INHIBITORS” (AMGEN INC., priority 2013, published 2015):
# Counter-ions that a name gives are not always drawn.
# Target: T1, human TRPM8 (Homo sapiens, UniProt Q7Z2W7)
# T1 construct: expressed in transfected cells; host or cells: Chinese hamster ovary (CHO) cells, T-REx tetracycline-inducible expression system (Invitrogen); co-transfected with pcDNA3.1 aequorin
# Test: Luminescence readout assay for measuring intracellular calcium (aequorin, CHO cells expressing human TRPM8; icilin, L-menthol or cold activation)
# Assay type: cell-based
# Conditions: not given
# In short: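 Activation was by 1 μM icilin, 100 μM L-menthol (test compound 2.5 min ahead) or cold buffer below 10° C (compound 1 min ahead). Calcium rise measured as aequorin luminescence in CHO cells with tetracycline-inducible human TRPM8.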
# T1 sequence (Q7Z2W7 whole entry): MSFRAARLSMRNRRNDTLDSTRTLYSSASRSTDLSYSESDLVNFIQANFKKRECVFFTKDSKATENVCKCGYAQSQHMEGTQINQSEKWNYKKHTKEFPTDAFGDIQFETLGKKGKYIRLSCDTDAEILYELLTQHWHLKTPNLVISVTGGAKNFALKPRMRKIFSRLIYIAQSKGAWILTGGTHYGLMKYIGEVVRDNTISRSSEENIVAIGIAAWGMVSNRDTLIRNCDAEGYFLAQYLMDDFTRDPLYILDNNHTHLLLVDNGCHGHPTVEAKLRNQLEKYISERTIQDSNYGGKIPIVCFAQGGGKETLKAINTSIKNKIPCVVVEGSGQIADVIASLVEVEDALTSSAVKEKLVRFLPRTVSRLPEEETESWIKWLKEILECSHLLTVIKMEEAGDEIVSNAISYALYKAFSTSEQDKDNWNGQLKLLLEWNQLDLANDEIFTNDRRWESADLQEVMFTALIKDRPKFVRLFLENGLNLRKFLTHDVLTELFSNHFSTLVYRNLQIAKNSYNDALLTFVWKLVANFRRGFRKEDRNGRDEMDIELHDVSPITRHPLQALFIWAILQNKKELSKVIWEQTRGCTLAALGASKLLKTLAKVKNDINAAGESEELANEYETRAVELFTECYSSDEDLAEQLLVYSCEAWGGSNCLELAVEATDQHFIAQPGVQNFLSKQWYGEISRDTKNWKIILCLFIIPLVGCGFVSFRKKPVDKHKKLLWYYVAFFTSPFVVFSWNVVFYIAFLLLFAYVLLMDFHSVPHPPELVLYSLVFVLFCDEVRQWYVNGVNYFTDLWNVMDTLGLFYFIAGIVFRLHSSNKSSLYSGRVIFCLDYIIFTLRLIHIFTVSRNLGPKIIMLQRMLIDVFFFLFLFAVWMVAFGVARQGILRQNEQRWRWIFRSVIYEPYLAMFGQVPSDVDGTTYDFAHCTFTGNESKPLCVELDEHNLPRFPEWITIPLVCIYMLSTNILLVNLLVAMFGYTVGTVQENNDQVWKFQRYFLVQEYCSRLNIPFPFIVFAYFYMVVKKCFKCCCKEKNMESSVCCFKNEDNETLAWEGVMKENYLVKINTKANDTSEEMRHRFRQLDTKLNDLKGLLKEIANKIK
row,IC50 [nM],Compound
1,4.07,"O=C(N[C@]1(c2ccc(OC(F)(F)F)cc2)CCOc2cccnc21)c1ccc2[nH]cnc2c1 [Example 237, (S)-N-(4-(4-(trifluoromethoxy)phenyl)-3,4-dihydro-2H-pyrano[3,2-b]pyridin-4-yl)1lH-benzo[d]imidazole-5-carboxamide formate]"

# Same assay, conditions: CHO cells expressing human TRPM8, icilin activation (1 μM), aequorin luminescence; read-out: hTRPM8 IC50
row,IC50 [nM],Compound
1,150,"O=C(N[C@]1(c2ccc(OC(F)(F)F)cc2)CCOc2cccnc21)c1cocn1 [Example 226, (S)-N-(4-(4-(trifluoromethoxy)phenyl)-3,4-dihydro-2H-pyrano[3,2-b]pyridin-4-yl)oxazole-4-carboxamide formate]"
2,58.7,"Cn1ccc(C(=O)N[C@]2(c3ccc(OC(F)(F)F)cc3)CCOc3cccnc32)n1 [Example 227, (S)-1-methyl-N-(4-(4-(trifluoromethoxy)phenyl)-3,4-dihydro-2H-pyrano[3,2-b]pyridin-4-yl)-1H-pyrazole-3-carboxamide formate]"
3,105,"Cn1nccc1C(=O)N[C@]1(c2ccc(OC(F)(F)F)cc2)CCOc2cccnc21 [Example 228, (S)-1-methyl-N-(4-(4-(trifluoromethoxy)phenyl)-3,4-dihydro-2H-pyrano[3,2-b]pyridin-4-yl)-lH-pyrazole-5-carboxamide formate_]"
4,145,"O=C(N[C@]1(c2ccc(OC(F)(F)F)cc2)CCOc2cccnc21)c1cccs1 [Example 229, (S)-N-(4-(4-(trifluoromethoxy)phenyl)-3,4-dihydro-2H-pyrano[3,2-b]pyridin-4-yl)thiophene-2-carboxamide fomiate]"
5,20.1,"O=C(N[C@]1(c2ccc(OC(F)(F)F)cc2)CCOc2cccnc21)c1ccsc1 [Example 230, (S)-N-(4-(4-(trifluoromethoxy)phenyl)-3,4-dihydro-2H-pyrano[3,2-b]pyridin-4-yl)thiophene-3-carboxamide formate]"
6,45.2,"O=C(N[C@]1(c2ccc(OC(F)(F)F)cc2)CCOc2cccnc21)c1cscn1 [Example 231, (S)-N-(4-(4-(trifluoromethoxy)phenyl)-3,4-dihydro-2H-pyrano[3,2-b]pyridin-4-yl)thiazole-4-carboxamide formate]"
7,25.8,"O=C(N[C@]1(c2ccc(OC(F)(F)F)cc2)CCOc2cccnc21)c1ccsn1 [Example 232, (S)-N-(4-(4-(trifluoromethoxy)phenyl)-3,4-dihydro-2H-pyrano[3,2-b]pyridin-4-yl)isothiazole-3-carboxamide formate]"
8,222,"O=C(N[C@]1(c2ccc(OC(F)(F)F)cc2)CCOc2cccnc21)c1cncs1 [Example 233, (S)-N-(4-(4-(trifluoromethoxy)phenyl)-3,4-dihydro-2H-pyrano[3,2-b]pyridin-4-yl)thiazole-5-carboxamide formate]"
9,56.8,"O=C(N[C@]1(c2ccc(OC(F)(F)F)cc2)CCOc2cccnc21)c1c[nH]c2ccccc12 [Example 234, (S)-N-(4-(4-(trifluoromethoxy)phenyl)-3,4-dihydro-2H-pyrano[3,2-b]pyridin-4-yl)-1H-indole-3-carboxamide foraiate]"
10,35.7,"O=C(N[C@]1(c2ccc(OC(F)(F)F)cc2)CCOc2cccnc21)c1ccc2cc[nH]c2c1 [Example 235, (S)-N-(4-(4-(trifluoromethoxy)phenyl)-3,4-dihydro-2H-pyrano[3,2-b]pyridin-4-yl)-1H-indole-6-carboxamide formate]"
11,66.5,"O=C(N[C@]1(c2ccc(OC(F)(F)F)cc2)CCOc2cccnc21)c1cc2ccccc2o1 [Example 236, (S)-N-(4-(4-(trifluoromethoxy)phenyl)-3,4-dihydro-2H-pyrano[3,2-b]pyridin-4-yl)benzofuran-2-carboxamide formate]"
12,41.4,"O=C(N[C@]1(c2ccc(OC(F)(F)F)cc2)CCOc2cccnc21)c1cccc2[nH]cnc12 [Example 238, (S)-N-(4-(4-(trifluoromethoxy)phenyl)-3,4-dihydro-2H-pyrano[3,2-b]pyridin-4-yl)-1H-benzo[d]imidazole-4-carboxamide formate]"
13,34.6,"O=C(N[C@]1(c2ccc(OC(F)(F)F)cc2)CCOc2cccnc21)c1cn2ccccc2n1 [Example 239, (S)-N-(4-(4-(trifluoromethoxy)phenyl)-3,4-dihydro-2H-pyrano[3,2-b]pyridin-4-yl)imidazo[1,2-a] pyridine-2-carboxamide formate]"
14,40.6,"O=C(N[C@]1(c2ccc(OC(F)(F)F)cc2)CCOc2cccnc21)c1ccc2nccn2c1 [Example 240, (S)-N-(4-(4-(trifluoromethoxy)phenyl)-3,4-dihydro-2H-pyrano[3,2-b]pyridin-4-yl)imidazo[1,2-a] pyridine-6-carboxamide formate]"
15,769,"O=C(N[C@]1(c2ccc(OC(F)(F)F)cc2)CCOc2cccnc21)c1nc2ccccc2[nH]1 [Example 241, (S)-N-(4-(4-(trifluoromethoxy)phenyl)-3,4-dihydro-2H-pyrano[3,2-b]pyridin-4-yl)-1H-benzo[d]imidazole-2-carboxamide formate]"
16,5.55,"O=C(N[C@]1(c2ccc(OC(F)(F)F)cc2)CCOc2cccnc21)c1n[nH]c2ncccc12 [Example 242, (S)-N-(4-(4-(trifluoromethoxy)phenyl)-3,4-dihydro-2H-pyrano[3,2-b]pyridin-4-yl)-1H-pyrazolo[3,4-b] pyridine-3-carboxamide formate]"

row,IC50 [nM],Compound
1,16.6,"O=C(N[C@]1(c2ccc(OC(F)(F)F)cc2)CCOc2cccnc21)c1cn2ncccc2n1 [Example 243, (S)-N-(4-(4-(trifluoromethoxy)phenyl)-3,4-dihydro-2H-pyrano[3,2-b]pyridin-4-yl)imidazo[1,2-b] pyridazine-2-carboxamide formate]"
2,52.1,"O=C(N[C@]1(c2ccc(OC(F)(F)F)cc2)CCOc2cccnc21)c1cnn2cccnc12 [Example 244, (S)-N-(4-(4-(trifluoromethoxy)phenyl)-3,4-dihydro-2H-pyrano[3,2-b]pyridin-4-yl)pyrazolo[1,5-a] pyrimidine-3-carboxamide formate]"
3,254,"O=C(N[C@]1(c2ccc(OC(F)(F)F)cc2)CCOc2cccnc21)C1Cc2ccccc2N1 (stereo partly drawn) [Example 245, N-((S)-4-(4-(trifluoromethoxy)phenyl)-3,4-dihydro-2H-pyrano[3,2-b]pyridin-4-yl)indoline-2-carboxamide formate]"
4,94.4,"O=C(N[C@]1(c2ccc(OC(F)(F)F)cc2)CCOc2cccnc21)C1Cc2ccccc2O1 (stereo partly drawn) [Example 246, N-((S)-4-(4-(trifluoromethoxy)phenyl)-3,4-dihydro-2H-pyrano[3,2-b]pyridin-4-yl)-2,3-dihydrobenzo furan-2-carboxamide formate]"
5,30,"O=C(N[C@]1(c2ccc(OC(F)(F)F)cc2)CCOc2cccnc21)c1nccc2ccccc12 [Example 247, (S)-N-(4-(4-(trifluoromethoxy)phenyl)-3,4-dihydro-2H-pyrano[3,2-b]pyridin-4-yl)isoquinoline-1-carboxamide formate]"
6,24,"O=C(N[C@]1(c2ccc(OC(F)(F)F)cc2)CCOc2cccnc21)c1cc2ccccc2cn1 [Example 248, (S)-N-(4-(4-(trifluoromethoxy)phenyl)-3,4-dihydro-2H-pyrano[3,2-b]pyridin-4-yl)isoquinoline-3-carboxamide formate]"
7,99,"O=C(N[C@]1(c2ccc(OC(F)(F)F)cc2)CCOc2cccnc21)c1cccc2cnccc12 [Example 249, (S)-N-(4-(4-(trifluoromethoxy)phenyl)-3,4-dihydro-2H-pyrano[3,2-b]pyridin-4-yl)isoquinoline-5-carboxamide formate]"
8,15,"O=C(N[C@]1(c2ccc(OC(F)(F)F)cc2)CCOc2cccnc21)c1ccc2cnccc2c1 [Example 250, (S)-N-(4-(4-(trifluoromethoxy)phenyl)-3,4-dihydro-2H-pyrano[3,2-b]pyridin-4-yl)isoquinoline-6-carboxamide formate]"
9,56,"O=C(N[C@]1(c2ccc(OC(F)(F)F)cc2)CCOc2cccnc21)c1ccc2ccccc2n1 [Example 251, (S)-N-(4-(4-(trifluoromethoxy)phenyl)-3,4-dihydro-2H-pyrano[3,2-b]pyridin-4-yl)quinoline-2-carboxamide formate]"
10,24,"O=C(N[C@]1(c2ccc(OC(F)(F)F)cc2)CCOc2cccnc21)c1cnc2ccccc2c1 [Example 252, (S)-N-(4-(4-(trifluoromethoxy)phenyl)-3,4-dihydro-2H-pyrano[3,2-b]pyridin-4-yl)quinoline-3-carboxamide formate]"
11,4,"O=C(N[C@]1(c2ccc(OC(F)(F)F)cc2)CCOc2cccnc21)c1ccc2ncccc2c1 [Example 253, (S)-N-(4-(4-(trifluoromethoxy)phenyl)-3,4-dihydro-2H-pyrano[3,2-b]pyridin-4-yl)quinoline-6-carboxamide formate]"
12,25,"O=C(N[C@]1(c2ccc(OC(F)(F)F)cc2)CCOc2cccnc21)c1ccc2cccnc2c1 [Example 254, (S)-N-(4-(4-(trifluoromethoxy)phenyl)-3,4-dihydro-2H-pyrano[3,2-b]pyridin-4-yl)quinoline-7-carboxamide fonnate]"
13,9,"O=C(N[C@]1(c2ccc(OC(F)(F)F)cc2)CCOc2cccnc21)c1cnc2ccccc2n1 [Example 255, (S)-N-(4-(4-(trifluoromethoxy)phenyl)-3,4-dihydro-2H-pyrano[3,2-b]pyridin-4-yl)quinoxaline-2-carboxamide formate]"
14,48,"Cn1c(C(=O)N[C@]2(c3ccc(OC(F)(F)F)cc3)CCOc3cccnc32)cc2ccccc21 [Example 256, (S)-1-methyl-N-(4-(4-(trifluoromethoxy)phenyl)-3,4-dihydro-2H-pyrano[3,2-b]pyridin-4-yl)-1H-indole-2-carboxamide formate]"
15,59,"Cn1cc(C(=O)N[C@]2(c3ccc(OC(F)(F)F)cc3)CCOc3cccnc32)c2ccccc21 [Example 257, (S)-1-methyl-N-(4-(4-(trifluoromethoxy)phenyl)-3,4-dihydro-2H-pyrano[3,2-b]pyridin-4-yl)-1H-indole-3-carboxamide formate]"
